This test has as its target T1, α-glucosidase (Saccharomyces cerevisiae, UniProt P53341).
T1 construct: purchased Sigma
Put plainly: α-glucosidase inhibition test (pNPG substrate, OD 405 nm); CI calculated with CompuSyn (Chou-Talalay). The format is biochemical. The note with it: for Inhibition rate: single compound. The text has this: [drawing 3] • α-glucosidase (coming from Saccharomyces cerevisiae, Sigma); • 4-nitrophenyl-α-D-glucopyranoside (pNPG, TOKYO Chemica Industry Co., LTD); • acarbose (Acarbose, TOKYO Chemica Industry Co., LTD); • hesperetin, galangin, and formononetin (BEIJING Solarbio Technology Co., LTD); • Millipore Simplicity water purification system (Millipore, France); • sodium phosphate salt buffer solution (pH 6.8, 0.1 mol L-1); and • microplate reader TECAN infinite M200 PRO (Teacan Group Ltd., Swizerland).
an α-glucosidase solution with a concentration being 0.25 U/mL and a substrate p-nitrophenyl-α-D-glucopyranoside (pNPG) solution with a concentration being 5 mmol/mL were prepared by using a PBS buffer solution (0.1 mol/L pH 6.8).
100 μL of sample solution was added to each hole, then 40 μL of α-glucosidase (0.25 U/mL) was added, reacted for 15 min at 37° C., and then 60 μL of substrate p-nitrophenyl-α-D-glucopyranoside (5 mmol/mL) was added; and after placed at 37° C. to react for 15 min, a microplate reader measured at a wave length of 405 nm.
CI values are calculated according to CompuSyn software to evaluate synergistic effect among drugs.

Data on 25 compounds can be found in patent US11771679B2, “Composition containing hesperetin and synergistic hypoglycemic application thereof” (ZHENGZHOU FRUIT RESEARCH INSTITUTE, CHINESE ACADEMY OF …, priority 2021, dated 2023).

A word on the inhibition: it is the drop in the measured response relative to a control, in per cent.

T1 sequence (P53341 whole entry): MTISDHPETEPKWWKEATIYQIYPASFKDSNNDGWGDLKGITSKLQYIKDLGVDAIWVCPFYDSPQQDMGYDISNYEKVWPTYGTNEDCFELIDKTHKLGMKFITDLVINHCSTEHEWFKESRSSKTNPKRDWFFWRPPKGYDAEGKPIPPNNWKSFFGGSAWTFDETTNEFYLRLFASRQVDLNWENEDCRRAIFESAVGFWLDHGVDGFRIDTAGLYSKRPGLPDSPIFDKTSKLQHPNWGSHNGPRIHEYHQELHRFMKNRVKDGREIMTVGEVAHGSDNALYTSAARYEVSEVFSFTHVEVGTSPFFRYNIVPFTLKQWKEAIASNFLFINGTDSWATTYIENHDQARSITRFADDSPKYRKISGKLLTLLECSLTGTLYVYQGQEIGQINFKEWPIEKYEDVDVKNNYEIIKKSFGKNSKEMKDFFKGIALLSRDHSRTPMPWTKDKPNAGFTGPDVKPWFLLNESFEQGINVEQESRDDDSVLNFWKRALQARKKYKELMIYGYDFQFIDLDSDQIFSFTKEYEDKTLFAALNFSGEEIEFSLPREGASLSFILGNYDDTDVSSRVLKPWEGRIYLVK

Consider `COc1ccc(-c2coc3cc(O)ccc3c2=O)cc1` [Formononetin], for which, where the note is “read-out: Inhibition rate”, the inhibition at 20 µg/mL was 60.1 ± 5.3% and the inhibition at 30 µg/mL was 65.2 ± 4.3%. In the case of `C[C@H]1O[C@H](O[C@H]2[C@H](O)[C@@H](O)[C@@H](O[C@H]3[C@H](O)[C@@H](O)C(O)O[C@@H]3CO)O[C@@H]2CO)[C@H](O)[C@@H](O)[C@@H]1N[C@H]1C=C(CO)[C@@H](O)[C@H](O)[C@H]1O` (stereo partly shown) [acarbose], the inhibition at 350 µg/mL (read-out: Inhibition rate) is 46.2 ± 3.5%. With `COc1ccc(C2CC(=O)c3c(O)cc(O)cc3O2)cc1O` (stereo not shown) [Hesperetin], under “read-out: Inhibition rate”, the inhibition at 30 µg/mL is 45.2 ± 3.2% and the inhibition at 50 µg/mL is 63.4 ± 4.2%. With `O=c1c(O)c(-c2cc(O)c(O)c(O)c2)oc2cc(O)cc(O)c12` [Myricetin], the inhibition at 1 µg/mL (read-out: Inhibition rate) was 41.2 ± 1.5%. Regarding `O=C1C[C@@H](c2ccc(O)cc2)Oc2cc(O)cc(O)c21` [Naringenin], the inhibition at 25 µg/mL (read-out: Inhibition rate) is 50.5 ± 4.3%. `COc1cc(O)c2c(=O)cc(-c3ccc(O)cc3)oc2c1` [Genkwanin]: the inhibition at 35 µg/mL (read-out: Inhibition rate) was 70.1 ± 5.5%. Consider `O=c1cc(-c2ccc(O)c(O)c2)oc2cc(O)cc(O)c12` [Luteolin], for which the inhibition at 1 µg/mL (read-out: Inhibition rate) was 45.5 ± 2.7%. Same read-out and setting: then `O=c1c(O)c(-c2ccc(O)cc2O)oc2cc(O)cc(O)c12` [Morin], with 41.2 ± 2.7%. Consider `Oc1cc(O)c2cc(O)c(-c3ccc(O)c(O)c3)[o+]c2c1` [Cyanidin], for which, where the note is “read-out: Inhibition rate”, the inhibition at 0.7 µg/mL was 47.5 ± 1.4%. `COc1c(-c2ccc(O)c(O)c2)oc2cc(O)cc(O)c2c1=O` [3-O-methyl quercetin]: the inhibition at 2 µg/mL (read-out: Inhibition rate) was 46.2 ± 1.2%. Consider `O=C1c2c(O)cc(O)cc2OC(c2ccc(O)cc2O)C1O` (stereo not shown) [Dihydromorin], for which the inhibition at 15 µg/mL (read-out: Inhibition rate) was 25.7 ± 4.7%. Regarding `O=c1cc(-c2ccc(O)cc2)oc2cc(O)cc(O)c12` [Apigenin], under “read-out: Inhibition rate”, the inhibition at 6 µg/mL is 56.1 ± 4.4%. Consider `Oc1cc(O)c2cc(O)c(-c3cc(O)c(O)c(O)c3)[o+]c2c1` [Delphinidin], for which the inhibition at 1 µg/mL (read-out: Inhibition rate) is 50.2 ± 4.3%. On to `COc1ccc(-c2coc3cc(O)cc(O)c3c2=O)cc1` [Biochanin A], for which the inhibition at 0.7 µg/mL (read-out: Inhibition rate) was 38.5 ± 2.1%. For the compound `O=C(/C=C/c1ccc(O)cc1)c1ccc(O)cc1O` [Isoliquiritigenin], the inhibition at 4 µg/mL (read-out: Inhibition rate) is 35.2 ± 2.5%. Regarding `O=c1cc(-c2ccccc2)oc2cc(O)c(O)c(O)c12` [Baicalein], the inhibition at 10 µg/mL (read-out: Inhibition rate) is 38.8 ± 3.3%. With `COc1ccc(-c2oc3cc(O)cc(O)c3c(=O)c2O)cc1` [Kaempferide], the inhibition at 5 µg/mL (read-out: Inhibition rate) was 30.8 ± 1.3%. For the compound Chrysin, the Inhibition rate (100 μg/mL) is 51.2 ± 5.5%. As for Vitexin, the Inhibition rate (10 μg/mL) is listed as 29.2 ± 1.4%. With `COc1ccc(-c2coc3cc(O)ccc3c2=O)cc1O` [Calycosin], the inhibition at 6 µg/mL (read-out: Inhibition rate) is 56.6 ± 4.3%.

For `O=c1c(-c2ccc(O)cc2)coc2cc(O)ccc12` [Daidzein], where the note is “read-out: Inhibition rate”, the inhibition at 8 µg/mL was 44.5 ± 2.5%.

With `COc1c(-c2ccc(O)c(O)c2)oc2cc(O[C@@H]3OC(C)[C@@H](O)C(O)C3O)cc(O)c2c1=O` (stereo partly shown) [Vincetoxicoside], under “read-out: Inhibition rate”, the inhibition at 12 µg/mL is 48.7 ± 2.1%. For the compound `O=C(CCc1ccc(O)cc1)c1c(O)cc(O)cc1O` [Phloretin], the inhibition at 8 µg/mL (read-out: Inhibition rate) is 46.3 ± 2.7%. As to `O=c1c(O)c(-c2ccc(O)c(O)c2)oc2cc(O)ccc12` [Fisetin], the inhibition at 6 µg/mL (read-out: Inhibition rate) was 46.5 ± 2.3%. For `O=c1c(O)c(-c2ccccc2)oc2cc(O)cc(O)c12` [Galangin], for the setting “read-out: Inhibition rate”, the inhibition at 100 µg/mL was 56.3 ± 4.5% and the inhibition at 150 µg/mL was 84.4 ± 7.5%.
